Source: the supplement of paper PMC9663587

Legend:
Experiment in all cases: GR value, 72 h; higher = faster growth (1 = untreated, <0 = killing);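 further: breast cancer and non-malignant breast epithelial lines, nine half-log doses, viable cells counted by Hoechst and LIVE/DEAD dye imaging versus time-zero plates and DMSO controls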
[1] = compound: CC1=CN2C(=O)C=C(N=C2C(=C1)C(C)NC3=CC=CC=C3)N4CCOCC4 [TGX221]
[2] = compound: CCC1=CN=CN=C1N2CCN(CC2)CC3=NC4=C(N3)C=C(C=C4)C(F)(F)F
[3] = compound: CCCCOc1c(C(=O)c2c(F)cc(C)cc2F)c[nH]c2nncc1-2
[4] = compound: CN1CCN(C(=O)c2ccc3cc(CCNc4ncnc5ccc(C#N)cc45)ccc3c2)CC1 [senexin b]
[5] = compound: COc1ccc2c(c1)[C@]1(C[C@H]1c1ccc3c(/C=C/c4ccc(CN5C[C@@H](C)O[C@@H](C)C5)cc4)n[nH]c3c1)C(=O)N2
[6] = compound: COc1cccc(OCCCN)c1-c1cc(Nc2cnc(C#N)cn2)n[nH]1
[7] = compound: CS(=O)(=O)N1CCN(Cc2cc3nc(-c4cccc5[nH]ncc45)nc(N4CCOCC4)c3s2)CC1 [Pictilisib/GDC0941]
[8] = compound: Cc1nc(-c2cn3c(n2)-c2ccc(-c4cnn(C(C)(C)C(N)=O)c4)cc2OCC3)n(C(C)C)n1 [Taselisib/GDC0032]
[9] = compound: Cc1nc(NC(=O)N2CCC[C@H]2C(N)=O)sc1-c1ccnc(C(C)(C)C(F)(F)F)c1 [Alpelisib/BYL719]
[10] = compound: Cc1nc(Nc2ncc(C(=O)Nc3c(C)cccc3Cl)s2)cc(N2CCN(CCO)CC2)n1 [Dasatinib]
[11] = compound: O=C(CCCCCCC(=O)Nc1ccccc1)NO [Vorinostat]
[12] = compound: O=C(c1cc(Cc2n[nH]c(=O)c3ccccc23)ccc1F)N1CCN(C(=O)C2CC2)CC1 [Olaparib/AZD2281]

Cell Line AU565 has a GR value ([1]; 0.001 µM) of 0.923 GR, a GR value ([1]; 0.003162 µM) of 0.912 GR and a GR value ([1]; 0.01 µM) of 0.868 GR. It also gave a GR value ([1]; 0.03162 µM) of 0.964 GR, a GR value ([1]; 0.1 µM) of 0.916 GR and a GR value ([1]; 0.3162 µM) of 0.889 GR. The GR value ([1]; 1 µM) was 0.919 GR, the GR value ([1]; 3.162 µM) was 0.852 GR and the GR value ([1]; 10 µM) was 0.58 GR. The GR value ([2]; 0.001 µM) was 1.03 GR, the GR value ([2]; 0.003162 µM) was 1.08 GR and the GR value ([2]; 0.01 µM) was 1.01 GR. For the same cell line, the GR value ([2]; 0.03162 µM) was 1.09 GR, the GR value ([2]; 0.1 µM) was 0.997 GR and the GR value ([2]; 0.3162 µM) was 0.985 GR. For the same cell line, the GR value ([2]; 1 µM) was 0.932 GR, the GR value ([2]; 3.162 µM) was 0.808 GR and the GR value ([2]; 10 µM) was 0.486 GR. It also gave a GR value ([3]; 0.001 µM) of 0.763 GR, a GR value ([3]; 0.003162 µM) of 0.828 GR and a GR value ([3]; 0.01 µM) of 0.656 GR. For the same cell line, the GR value ([3]; 0.03162 µM) was 0.622 GR, the GR value ([3]; 0.1 µM) was 0.545 GR and the GR value ([3]; 0.3162 µM) was 0.489 GR. For the same cell line, the GR value ([3]; 1 µM) was 0.372 GR, the GR value ([3]; 3.162 µM) was 0.0322 GR and the GR value ([3]; 10 µM) was -0.151 GR. The GR value ([4]; 0.001 µM) was 1.02 GR, the GR value ([4]; 0.003162 µM) was 0.919 GR and the GR value ([4]; 0.01 µM) was 0.88 GR. It also gave a GR value ([4]; 0.03162 µM) of 1.05 GR, a GR value ([4]; 0.1 µM) of 0.897 GR and a GR value ([4]; 0.3162 µM) of 0.904 GR. The GR value ([4]; 1 µM) was 0.786 GR, the GR value ([4]; 3.162 µM) was 0.768 GR and the GR value ([4]; 10 µM) was 0.913 GR. For the same cell line, the GR value ([5]; 0.0001 µM) was 0.968 GR, the GR value ([5]; 0.0003162 µM) was 0.96 GR and the GR value ([5]; 0.001 µM) was 0.874 GR. It also gave a GR value ([5]; 0.003162 µM) of 0.602 GR, a GR value ([5]; 0.01 µM) of -0.128 GR and a GR value ([5]; 0.03162 µM) of -0.147 GR. It also gave a GR value ([5]; 0.1 µM) of -0.161 GR, a GR value ([5]; 0.3162 µM) of -0.168 GR and a GR value ([5]; 1 µM) of -0.109 GR. It also gave a GR value ([6]; 10 pM) of 0.889 GR, a GR value ([6]; 31.6 pM) of 0.97 GR and a GR value ([6]; 0.0001 µM) of 1.1 GR. It also gave a GR value ([6]; 0.0003162 µM) of 1.09 GR, a GR value ([6]; 0.001 µM) of 0.219 GR and a GR value ([6]; 0.003162 µM) of 0.112 GR. The GR value ([6]; 0.01 µM) was 0.0322 GR, the GR value ([6]; 0.03162 µM) was 0.0412 GR and the GR value ([6]; 0.1 µM) was 0.077 GR. For the same cell line, the GR value ([7]; 0.001 µM) was 0.964 GR, the GR value ([7]; 0.003162 µM) was 0.961 GR and the GR value ([7]; 0.01 µM) was 0.898 GR. For the same cell line, the GR value ([7]; 0.03162 µM) was 0.642 GR, the GR value ([7]; 0.1 µM) was 0.37 GR and the GR value ([7]; 0.3162 µM) was 0.101 GR. For the same cell line, the GR value ([7]; 1 µM) was -0.096 GR, the GR value ([7]; 3.162 µM) was -0.251 GR and the GR value ([7]; 10 µM) was -0.391 GR. It also gave a GR value ([8]; 0.001 µM) of 0.728 GR, a GR value ([8]; 0.003162 µM) of 0.58 GR and a GR value ([8]; 0.01 µM) of 0.208 GR. It also gave a GR value ([8]; 0.03162 µM) of -0.0424 GR, a GR value ([8]; 0.1 µM) of -0.111 GR and a GR value ([8]; 0.3162 µM) of -0.171 GR. It also gave a GR value ([8]; 1 µM) of -0.209 GR, a GR value ([8]; 3.162 µM) of -0.225 GR and a GR value ([8]; 10 µM) of -0.538 GR. It also gave a GR value ([9]; 0.001 µM) of 0.962 GR, a GR value ([9]; 0.003162 µM) of 1.06 GR and a GR value ([9]; 0.01 µM) of 0.931 GR. It also gave a GR value ([9]; 0.03162 µM) of 0.762 GR, a GR value ([9]; 0.1 µM) of 0.621 GR and a GR value ([9]; 0.3162 µM) of 0.504 GR. The GR value ([9]; 1 µM) was 0.215 GR, the GR value ([9]; 3.162 µM) was -0.0201 GR and the GR value ([9]; 10 µM) was -0.464 GR. For the same cell line, the GR value ([10]; 0.001 µM) was 0.873 GR, the GR value ([10]; 0.003162 µM) was 0.908 GR and the GR value ([10]; 0.01 µM) was 0.966 GR. For the same cell line, the GR value ([10]; 0.03162 µM) was 0.961 GR, the GR value ([10]; 0.1 µM) was 0.877 GR and the GR value ([10]; 0.3162 µM) was 0.963 GR. The GR value ([10]; 1 µM) was 0.875 GR, the GR value ([10]; 3.162 µM) was 0.73 GR and the GR value ([10]; 10 µM) was 0.274 GR. It also gave a GR value ([11]; 0.001 µM) of 0.865 GR, a GR value ([11]; 0.003162 µM) of 0.936 GR and a GR value ([11]; 0.01 µM) of 1.02 GR. The GR value ([11]; 0.03162 µM) was 0.999 GR, the GR value ([11]; 0.1 µM) was 1.06 GR and the GR value ([11]; 0.3162 µM) was 0.941 GR. It also gave a GR value ([11]; 1 µM) of 0.551 GR, a GR value ([11]; 3.162 µM) of -0.345 GR and a GR value ([11]; 10 µM) of -0.448 GR. It also gave a GR value ([12]; 0.001 µM) of 0.901 GR, a GR value ([12]; 0.003162 µM) of 1 GR and a GR value ([12]; 0.01 µM) of 1.02 GR. The GR value ([12]; 0.03162 µM) was 1.04 GR, the GR value ([12]; 0.1 µM) was 1 GR and the GR value ([12]; 0.3162 µM) was 0.907 GR. For the same cell line, the GR value ([12]; 1 µM) was 0.942 GR, the GR value ([12]; 3.162 µM) was 0.979 GR and the GR value ([12]; 10 µM) was 0.577 GR.
